According to patent publication US8236826B2, “Diarylether derivatives as antitumor agents” (Otsuka Pharmaceutical Co., Ltd., priority 2005, dated 2012):
Counter-ions that a name gives are not always drawn.

melting point [°C]	SMILES
186 to 187	O=C(Nc1ccc(Oc2ccc(N3CCN(Cc4ccccc4)C3=O)cc2)nc1)c1ccc(Cl)c(Cl)c1 [Example 1182]
163.1 to 166.5	Cc1cc(N(C)CC(=O)N2CCN(Cc3ccc4c(c3)OCO4)CC2)ccc1Oc1ccc(NC(=O)c2ccc(-n3cccc3)cc2)cn1 [Example 2711, N-[6-(4-{[2-(4-piperonylpiperazin-1-yl)-2-oxoethyl]methylamino}-2-methylphenoxy)pyridin-3-yl]-4-pyrrole-1-ylbenzamide]
150 to 165	CC(=O)N(c1ccc(CCC(=O)N2CCN(Cc3ccc4c(c3)OCO4)CC2)cc1)c1ccc(NC(=O)c2ccc(Cl)c(Cl)c2)cn1 [Example 2099, N-[6-(Acetyl{4-[3-oxo-3-(4-piperonylpiperazin-1-yl)propyl]phenyl}amino)pyridin-3-yl]-3,4-dichlorobenzamide]
188 to 189	Cc1cc(N2CCN(Cc3ccc4c(c3)OCO4)C2=O)ccc1Oc1ccc(NC(=O)c2ccc(C(F)(F)F)cc2)cn1 [Example 1504, N-{6-[2-methyl-4-(2-oxo-3-piperonylimidazolidin-1-yl)phenoxy]pyridin-3-yl}-4-trifluoromethylbenzamide]
169 to 171	O=C(Nc1ccc(Oc2ccc(C3=CCN(CCCn4ccnc4)CC3)cc2)cc1)c1ccc(Cl)c(Cl)c1 [Example 2486, 3,4-Dichloro-N-(4-{4-[1-(3-imidazole-1-ylpropyl)-1,2,3,6-tetrahydropyridine-4-yl]phenoxy}phenyl)-benzamide]
220 to 221	CN(CC(=O)N1CCN(Cc2ccc3c(c2)OCO3)CC1)c1ccc(Oc2ccc(NC(=O)c3ccc(C(F)(F)F)cc3)cn2)c(F)c1 [Example 776]
177 to 178	O=C(CN1CCOCC1)c1ccc(Oc2ccc(NC(=O)c3ccc(Cl)c(Cl)c3)cc2F)cc1 [Example 2563]

Further lines, the compound ahead of its results:

SMILES	melting point [°C]
Cc1cc(N(C)CC(=O)N2CCN(Cc3ccccc3)CC2)ccc1Oc1ccc(NC(=O)c2ccc(Cl)c(Cl)c2)cn1 [Example 1516]	111 to 113
O=C(Nc1ccc(Oc2ccc(N3CCN(C(=O)COc4ccc5c(c4)OCO5)CC3)cc2)cc1)c1ccc(Cl)c(Cl)c1 [Example 2053]	116 to 118
O=C(Nc1ccc(Oc2ccc(C3CCN(C(=O)CN4CCOCC4)CC3)cc2)cc1)c1ccc(Cl)c(Cl)c1 (as salt: hydrochloride) [Example 2571]	146 to 150
O=C(Nc1ccc(Oc2ccc(CCC(=O)N3CCN(c4cccnc4)CC3)cc2)c(F)c1)c1ccc(Cl)c(Cl)c1 [Example 467]	183 to 185
CCN(CC(=O)N1CCN(Cc2ccoc2)CC1)c1ccc(Oc2ccc(NC(=O)c3ccc(C(F)(F)F)cc3)cn2)c(OC)c1 [Example 784]	174 to 176
O=C(Nc1ccc(Oc2ccc(C(=O)N3CCOCC3)cc2)cc1)c1ccc(Cl)c(Cl)c1 [Example 10]	189 to 192
O=C(C1CCN(c2ccc(Oc3ccc(NS(=O)(=O)c4ccc(Cl)c(Cl)c4)cn3)cc2)CC1)N1CCN(Cc2ccccc2)CC1 [Example 2710, N-(6-{4-[4-(4-benzylpiperazine-1-carbonyl)piperidin-1-yl]phenoxy}pyridin-3-yl)-3,4-dichlorobenzenesulfonamide]	185 to 189
CCN(CC(=O)N1CCN(Cc2ccc3c(c2)OCO3)CC1)c1ccc(Oc2ccc(NC(=O)c3ccc(C(F)(F)F)cc3)cn2)cc1 [Example 774]	178 to 180
O=C(Nc1ccc(Oc2ccc(C(=O)N3CCOCC3)cc2)c(F)c1)c1ccc(Cl)c(Cl)c1 [Example 11]	203 to 204
Cc1cc(N(C)CC(=O)N2CCN(Cc3ccoc3)CC2)ccc1Oc1ccc(NC(=O)c2ccc(Cl)c(Cl)c2)cn1 [Example 718]	116.5 to 118
O=C(Nc1ccc(Oc2ccc(N3CCN(S(=O)(=O)c4ccccc4)CC3)cc2)cc1)c1ccc(Cl)c(Cl)c1 [Example 2031, N-{4-[4-(4-benzenesulfonylpiperazin-1-yl)phenoxy]phenyl}-3,4-dichlorobenzamide]	191 to 192
